From US20160067232A1, “METHODS FOR TREATING A STROKE-RELATED SENSORIMOTOR IMPAIRMENT USING AMINOPYRIDINES” (Acorda Therapeutics, Inc., priority 2011, published 2016)
Several values for one entry are separate records, joined by “and”; a condition that tells them apart may be missing. Identical values can stand only once.

What was measured:
[1] = tested on: rats with middle cerebral artery occlusion (MCAO); test: Forelimb placing test, MCAO rats, double crossover study (Example 2); format: in vivo, Sprague Dawley rat
Method: 4-AP was evaluated for its ability to promote functional sensorimotor improvement following ischemic stroke in rats with stable motor deficits at times remote from their ischemic events. The animal model mimics the conditions in human ischemic stroke and is produced by middle cerebral artery occlusion (MCAO), which results in extensive infarction in cerebral cortex and striatum, including the cortical spinal tract (white matter).
In particular, the MCAO model in Sprague Dawley rats that was utilized in the experiments presented below mimics the conditions in human ischemic stroke. In this model, focal cerebral infarcts were made by permanent occlusion of the proximal right middle cerebral artery (MCA) using a modification of the method of Tamura et al. (No To Shinkei 1986; 38:747-51). Briefly, the temporalis muscle was bisected and reflected through an incision made midway between the eye and the ear canal. The proximal MCA was exposed through a subtemporal craniectomy without removing the zygomatic arch and without transecting the facial nerve.
Dosing and Treatment: Rats were treated in accordance with the dosing schedule shown in Tables 2A, 2B, 3 and FIG. 2, with each Phase being a two week period of time. A solution of 4-AP was used in this experiment. Dosing was started at 4 weeks after ischemic event. 4-aminopyridine was dissolved in water for injection (WFI, Cellgro) and sterile filtered. Final concentrations of 0.315 mg/mL or 1.0 mg/mL of 4-aminopyridine were delivered at 2 mL/kg by gastric gavage, resulting in final doses of 0.63 mg/kg and 2 mg/kg respectively. Vehicle control treatment was WFI delivered at 2 mL/kg by gastric gavage. This study was divided into three treatment phases (1-3) with each randomized cohort of animals receiving a different dose level during each of the treatment phases. Starting on day 30 after MCAO (Day 30, start of phase 1), the animals received gavage dosing of solutions (2 mL/kg) approximately 12 hours apart, for a total of five doses. The same schedule was repeated with different treatment on Day 44 and Day 58 for phase 2 and 3 of the study, respectively. Animals were not treated during the 10 days between phases (washout period).
Treatment groups: Dosing was started 4 weeks after MCAO surgery. During these 4 weeks, weekly behavioral assessments, as defined below, were performed. Two dose levels of 4-AP plus vehicle control were assessed, with treatment starting at 4 weeks after ischemic event. […] Following the final behavioral assessment, drug was withdrawn for 10 or 11 days, behavior was re-assessed, and then animals were re-challenged with a cross-over treatment (Phase 2 of Table 2B) as described in Tables 2A, 2B and 3, followed by the same behavioral testing and dosing regimen. […]

[2] = tested on: rats with middle cerebral artery occlusion (MCAO); test: Infarct volume measurement, MCAO rats (Example 17); format: in vivo, Sprague Dawley rat
Method: Infarct measurement: Brains were embedded in paraffin and 5 micron thick coronal sections were cut using a microtome. Sections were stained with hematoxylin and eosin (H&E), using standard methods. Seven coronal sections (+4.7, +2.7, +0.7, −1.3, −3.3, −5.3 and −7.3, compared to bregma respectively) from each brain were photographed by a digital camera, and the infarct area on each slice was determined by NIH Image (Image J) using the “indirect method” (area of the intact contralateral [left] hemisphere−area of intact regions of the ipsilateral [right] hemisphere) to correct for brain edema. Infarct areas were then summed among slices and multiplied by slice thickness (the distance between sections) to give total infarct volume, which was expressed as a percentage of intact contralateral hemispheric volume.
Euthanasia and post-mortem processing: At day 70 after MCAO rats were anesthetized as described in Example 2, above.
Infarct measurement: Infarct measurement was performed as described in Example 2, above.
Statistical Methods: Changes from pre-treatment baseline values (Day 56) were calculated for each behavioral score at each time point assessed after dosing. Mean behavioral parameter data were subject to Analysis of Variance (ANOVA). Infarct volume data were analyzed by ANOVA. All data were expressed as means±SEM.

[3] = typical; also printed as 94 ng/mL^−1; cited from earlier work
[4] = Body weight (g) of MCAO rats (Example 2); details: individual animals and Mean (N=15), listed as 4-AP

Nc1ccncc1 [4-aminopyridine]
Forelimb function, low dose compared to vehicle, first mixed model ([1]; 0.63 mg/kg b.i.d. p.o., level 0.05): didn't show statistical significant improvement | Forelimb function, low dose compared to vehicle, second mixed model ([1]; 0.63 mg/kg b.i.d. p.o., p<0.0001): significant difference | Forelimb function, high dose compared to low dose and vehicle ([1]; 2 mg/kg b.i.d. p.o., first mixed model, p=0.0334 vs low, p=0.001 vs vehicle): significantly improved the forelimb function | Effect on forelimb function (FIG. 3) ([1]; low or high dose, 4 weeks post ischemic brain injury, dose-responsive, reversible): effective to improve forelimb function | Mean (SE) Infarct Volume (%) ([2]; 4-AP dose escalation 0.5, 1 and 2 mg/kg p.o. b.i.d. Days 56-65 after MCAO): 40.0 (2.3) % | Infarct volume, 4-aminopyridine versus vehicle (water) ([2]; Day 70 after MCAO): no differences in infarct volume were observed | 4-AP plasma concentrations obtained in clinical studies [3]: < 1 µM | Weight (g) Group 1, D30 ([4]; Group 1, D30, treatment phase 1 (high-dose 4-AP)): 425 g (2×) and 450 g and 435 g and 490 g and 544 g and 470 g and 512 g and 434 g and 482 g and 480 g and 360 g and 422 g and 496 g and 372 g | Weight (g) Group 1, D32 ([4]; Group 1, D32, treatment phase 1 (high-dose 4-AP)): 411 g and 441 g and 417 g and 470 g and 515 g and 454 g and 496 g and 422 g and 453 g and 461 g and 351 g and 404 g and 412 g and 477 g and 360 g | Weight (g) Group 1, D44 ([4]; Group 1, D44, treatment phase 2 (low-dose 4-AP)): 455 g and 501 g and 447 g and 511 g and 566 g and 480 g and 545 g and 454 g and 502 g (2×) and 400 g and 440 g and 456 g and 494 g and 390 g | Weight (g) Group 1, D46 ([4]; Group 1, D46, treatment phase 2 (low-dose 4-AP)): 448 g and 490 g (2×) and 440 g and 494 g (2×) and 570 g and 488 g and 552 g and 457 g and 491 g and 386 g and 442 g and 446 g and 379 g | Weight (g) Group 2, D30 ([4]; Group 2, D30, treatment phase 1 (low-dose 4-AP)): 474 g and 380 g (2×) and 414 g and 444 g and 410 g and 480 g (2×) and 540 g and 475 g and 512 g and 434 g and 420 g and 416 g and 431 g | Weight (g) Group 2, D32 ([4]; Group 2, D32, treatment phase 1 (low-dose 4-AP)): 473 g and 369 g and 410 g and 426 g and 406 g and 455 g and 541 g and 467 g and 508 g and 476 g and 424 g and 403 g and 412 g and 374 g and 428 g | Weight (g) Group 2, D58 ([4]; Group 2, D58, treatment phase 3 (high-dose 4-AP)): 530 g and 425 g and 461 g and 477 g and 455 g and 540 g and 635 g and 535 g and 570 g and 546 g and 499 g and 456 g and 470 g and 432 g and 483 g | Weight (g) Group 2, D60 ([4]; Group 2, D60, treatment phase 3 (high-dose 4-AP)): 517 g and 410 g and 444 g (2×) and 460 g and 441 g and 519 g and 614 g and 508 g and 535 g and 530 g and 488 g and 447 g and 417 g and 471 g | Weight (g) Group 3, D44 ([4]; Group 3, D44, treatment phase 2 (high-dose 4-AP)): 460 g and 461 g and 469 g and 451 g and 423 g and 462 g and 463 g (2×) and 532 g and 572 g and 538 g and 442 g and 445 g (2×) and 453 g | Weight (g) Group 3, D46 ([4]; Group 3, D46, treatment phase 2 (high-dose 4-AP)): 440 g and 436 g (2×) and 455 g and 435 g (2×) and 402 g and 442 g and 502 g and 567 g and 497 g and 446 g and 430 g (2×) and 412 g | Weight (g) Group 3, D58 ([4]; Group 3, D58, treatment phase 3 (low-dose 4-AP)): 475 g and 486 g and 485 g and 467 g and 440 g and 472 g and 490 g and 550 g and 625 g and 573 g and 492 g and 462 g and 469 g and 476 g and 461 g | Weight (g) Group 3, D60 ([4]; Group 3, D60, treatment phase 3 (low-dose 4-AP)): 466 g and 479 g and 484 g (2×) and 463 g and 430 g and 465 g and 550 g and 613 g and 549 g and 468 g and 453 g and 456 g and 470 g and 447 g
